Measured values from ChEMBL document CHEMBL1130722, “Synthesis of gem-difluoro-avermectin derivatives: potent anthelmintic and anticonvulsant agents” (1998).

Assays:
Assay type in all cases: functional
[1] = species on record: Mus musculus; test: Compound was tested for the sedative effect by using mouse rotarod test; details: for minimal effective dose: read-out: MED
[2] = species on record: Mus musculus; test: Compound was tested for the anticonvulsant activity in pentamethylenetetrazole mouse epilepsy model
[3] = test system: Haemonchus contortus; test: Compound was tested for the anthelmintic efficacy by using Haemonchus contortus larval assay
[4] = test system: Artemia salina; test: Compound was tested for the antiparasitic activity by using Artemia salina (brine shrimp) immobilization assay

| Molecule | minimal effective dose [1] [mg/kg] | ED50 [2] [mg/kg] | MED [1] [mg/kg] | IC100 [3] [ng/mL] | IC100 [4] [ng/mL] | IC100 [2] [ng/mL] |
| --- | --- | --- | --- | --- | --- | --- |
| CN1C(=O)CN=C(c2ccccc2)c2cc(Cl)ccc21 [DIAZEPAM] | 3 | 0.26 |  |  |  |  |
| IVERMECTIN |  | 28.2 | > 300 | 10 | 430 |  |
| CCC(C)[C@H]1O[C@@]2(C[C@@H]3C[C@@H](C/C=C(\C)[C@@H](O[C@H]4C[C@H](OC)[C@@H](O[C@H]5C[C@H](OC)[C@@H](O)[C@H](C)O5)[C@H](C)O4)[C@@H](C)/C=C/C=C4\CO[C@@H]5[C@H](OC)C(C)=C[C@@H](C(=O)O3)[C@]45O)O2)CC(F)(F)[C@@H]1C (stereo partly drawn) |  |  |  | 10 |  |  |
| CCC(C)[C@H]1O[C@]2(C=C[C@@H]1C)C[C@@H]1C[C@@H](C/C=C(\C)C(F)(F)[C@@H](C)/C=C/C=C3\CO[C@@H]4[C@H](O)C(C)=C[C@@H](C(=O)O1)[C@]34O)O2 (stereo partly drawn) |  |  |  | 10 | 325 |  |
| CCC(C)[C@H]1O[C@]2(C=C[C@@H]1C)C[C@@H]1C[C@@H](C/C=C(\C)[C@@H](O[C@H]3C[C@H](OC)[C@@H](O[C@H]4C[C@H](OC)C(F)(F)[C@H](C)O4)[C@H](C)O3)[C@@H](C)/C=C/C=C3\CO[C@@H]4[C@H](O)C(C)=C[C@@H](C(=O)O1)[C@]34O)O2 (stereo partly drawn) |  |  |  | 10 | 5200 |  |
| CCC(C)[C@H]1O[C@]2(C=C[C@@H]1C)C[C@@H]1C[C@@H](C/C=C(\C)[C@@H](O[C@H]3C[C@H](OC)[C@@H](O[C@H]4C[C@H](OC)[C@H](O)[C@H](C)O4)[C@H](C)O3)[C@@H](C)/C=C/C=C3\CO[C@@H]4[C@H](O)C(C)=C[C@@H](C(=O)O1)[C@]34O)O2 (stereo partly drawn) |  |  |  |  | 430 | 28.2 |
| CCC(C)[C@H]1O[C@]2(C=C[C@@H]1C)C[C@@H]1C[C@@H](C/C=C(\C)[C@@H](O[C@H]3C[C@H](OC)C(F)(F)[C@H](C)O3)[C@@H](C)/C=C/C=C3\CO[C@@H]4[C@H](O)C(C)=C[C@@H](C(=O)O1)[C@]34O)O2 (stereo partly drawn) |  |  |  | 10 |  |  |
| CCC(C)[C@H]1O[C@@]2(C[C@@H]3C[C@@H](C/C=C(\C)[C@@H](O[C@H]4C[C@H](OC)[C@@H](O[C@H]5C[C@H](OC)[C@@H](O)[C@H](C)O5)[C@H](C)O4)[C@@H](C)/C=C/C=C4\CO[C@@H]5[C@H](O)C(C)=C[C@@H](C(=O)O3)[C@]45O)O2)CC(F)(F)[C@@H]1C (stereo partly drawn) | > 40 | 9 |  | 10 | 13009 |  |
